# Data as given in patent US20230072421A1, “TARGETED RADIOPHARMACEUTICALS FOR THE DIAGNOSIS AND TREATMENT OF PROSTATE CANCER” (Bayer AS, priority 2019, published 2023).
# What was measured:
# C4-2 cells = experiment: Cell proliferation assay (CellTiter-Glo, 5-day exposure), C4-2; type: cell-based; settings: C4-2, 1000 cells/well, Th-227 labelled at 375 kBq/nmol, mean of 1 to 6 experiments
# Outline: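 Seeding was 4000 cells/well for VCaP and 1000 cells/well for 22Rv1, C4-2 and LNCaP, followed by overnight culture at 37° C and 5% CO2. Cells were exposed to Thorium-227-labeled PSMA ligands for 5 days, and viability was measured by CellTiter-Glo luminescence both at treatment start and at the end.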
# [1] = Biodistribution study in LNCaP tumor-bearing mice (Th227 counted in organs); type: in vivo, SCID mice
# Outline: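 Th227 in excised, weighed organs was counted with a Germanium detector at predetermined time points (n=3 mice each). This followed one i.v. injection of radiolabelled compound into testosterone-supplemented SCID mice carrying LNCaP xenografts in Matrigel, dosed once tumors reached ~50 mm^2.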
# [2] = 0.25 h, 500 kBq/kg, study b2999
smiles,measurement,setting,value
"O=C([O-])CN1CCN(CC(=O)[O-])CCN(CC(=O)NCC2CCC(C(=O)NC(Cc3ccc4ccccc4c3)C(=O)NCCCCC(NC(=O)NC(CCC(=O)O)C(=O)O)C(=O)O)CC2)CCN(CC(=O)[O-])CC1.[227Th+4] [Example 1-B-227Th, [^227Th]Thorium (3S,10S,14S)-3-[(naphthalen-2-yl)methyl]-1,4,12-trioxo-1-{(1r,4S)-4-[(2-{4,7,10-tris[(carboxy-kappaO)methyl]-1,4,7,10-tetraazacyclododecan-1-yl-kappa^4N^1,N^4,N^7,N^10}acetamido)methyl]cyclohexyl}-2,5,11,13-tetraazahexadecane-10,14,16-tricarboxylate]",Proliferation assay on cancer cell lines by TTCs Default Pivot #3 IC50 [kBq/mL] C4-2 1000cells 375kBq/nmol (mean),C4-2 cells,0.17 kBq/mL
same,Th-227 in Blood,[1]; [2],1.68 % ID Th-227/g organ
same,Th-227 in Femur and tibia,[1]; [2],1.31 % ID Th-227/g organ
same,Th-227 in Kidneys,[1]; [2],114.94 % ID Th-227/g organ
same,Th-227 in Liver,[1]; [2],0.92 % ID Th-227/g organ
same,Th-227 in Salivary gland,[1]; [2],10.22 % ID Th-227/g organ
same,Th-227 in Spleen,[1]; [2],6.51 % ID Th-227/g organ
same,Th-227 in Tumor,[1]; [2],8.41 % ID Th-227/g organ
same,Th-227 in prostate,[1]; [2],8.53 % ID Th-227/g organ
same,Th-227 in Blood,"[1]; 0.25 h, 1500 kBq/kg",6.68% ID Th-227/g organ
same,Th-227 in Liver,"[1]; 0.25 h, 1500 kBq/kg",2.01% ID Th-227/g organ
same,Th-227 in Spleen,"[1]; 0.25 h, 1500 kBq/kg",11.41% ID Th-227/g organ
same,Th-227 in Tumor,"[1]; 0.25 h, 1500 kBq/kg",6.89% ID Th-227/g organ
same,Th-227 in bone,"[1]; 0.25 h, 1500 kBq/kg",2.42% ID Th-227/g organ
same,Th-227 in brain,"[1]; 0.25 h, 1500 kBq/kg",0.27% ID Th-227/g organ
same,Th-227 in kidney,"[1]; 0.25 h, 1500 kBq/kg",36.39% ID Th-227/g organ
same,Th-227 in large intestine,"[1]; 0.25 h, 1500 kBq/kg",1.08% ID Th-227/g organ
same,Th-227 in lung,"[1]; 0.25 h, 1500 kBq/kg",4.42% ID Th-227/g organ
same,Th-227 in muscle,"[1]; 0.25 h, 1500 kBq/kg",1.06% ID Th-227/g organ
same,Th-227 in prostate,"[1]; 0.25 h, 1500 kBq/kg",7.80% ID Th-227/g organ
same,Th-227 in salivary glands,"[1]; 0.25 h, 1500 kBq/kg",2.81% ID Th-227/g organ
same,Th-227 in small intestine,"[1]; 0.25 h, 1500 kBq/kg",1.14% ID Th-227/g organ
same,Th-227 in Blood,"[1]; 1 hr, 500 kBq/kg, study b2999",0.37 % ID Th-227/g organ
same,Th-227 in Femur and tibia,"[1]; 1 hr, 500 kBq/kg, study b2999",0.78 % ID Th-227/g organ
same,Th-227 in Kidneys,"[1]; 1 hr, 500 kBq/kg, study b2999",150.81 % ID Th-227/g organ
same,Th-227 in Liver,"[1]; 1 hr, 500 kBq/kg, study b2999",0.41 % ID Th-227/g organ
same,Th-227 in Salivary gland,"[1]; 1 hr, 500 kBq/kg, study b2999",17.15 % ID Th-227/g organ
same,Th-227 in Spleen,"[1]; 1 hr, 500 kBq/kg, study b2999",6.04 % ID Th-227/g organ
same,Th-227 in Tumor,"[1]; 1 hr, 500 kBq/kg, study b2999",10.87 % ID Th-227/g organ
same,Th-227 in prostate,"[1]; 1 hr, 500 kBq/kg, study b2999",9.05 % ID Th-227/g organ
same,Th-227 in Blood,"[1]; 1 hr, 1500 kBq/kg",3.85% ID Th-227/g organ
same,Th-227 in Liver,"[1]; 1 hr, 1500 kBq/kg",1.99% ID Th-227/g organ
same,Th-227 in Spleen,"[1]; 1 hr, 1500 kBq/kg",9.16% ID Th-227/g organ
same,Th-227 in Tumor,"[1]; 1 hr, 1500 kBq/kg",7.34% ID Th-227/g organ
same,Th-227 in bone,"[1]; 1 hr, 1500 kBq/kg",5.16% ID Th-227/g organ
same,Th-227 in brain,"[1]; 1 hr, 1500 kBq/kg",0.07% ID Th-227/g organ
same,Th-227 in kidney,"[1]; 1 hr, 1500 kBq/kg",38.11% ID Th-227/g organ
same,Th-227 in large intestine,"[1]; 1 hr, 1500 kBq/kg",0.57% ID Th-227/g organ
same,Th-227 in lung,"[1]; 1 hr, 1500 kBq/kg",2.88% ID Th-227/g organ
same,Th-227 in muscle,"[1]; 1 hr, 1500 kBq/kg",0.76% ID Th-227/g organ
same,Th-227 in prostate,"[1]; 1 hr, 1500 kBq/kg",1.15% ID Th-227/g organ
same,Th-227 in salivary glands,"[1]; 1 hr, 1500 kBq/kg",1.62% ID Th-227/g organ
same,Th-227 in small intestine,"[1]; 1 hr, 1500 kBq/kg",0.84% ID Th-227/g organ
same,Th-227 in Blood,"[1]; 4 hr, 1500 kBq/kg",1.05% ID Th-227/g organ
same,Th-227 in Liver,"[1]; 4 hr, 1500 kBq/kg",1.32% ID Th-227/g organ
same,Th-227 in Spleen,"[1]; 4 hr, 1500 kBq/kg",6.17% ID Th-227/g organ
same,Th-227 in Tumor,"[1]; 4 hr, 1500 kBq/kg",13.09% ID Th-227/g organ
same,Th-227 in bone,"[1]; 4 hr, 1500 kBq/kg",7.25% ID Th-227/g organ
same,Th-227 in brain,"[1]; 4 hr, 1500 kBq/kg",0.04% ID Th-227/g organ
same,Th-227 in kidney,"[1]; 4 hr, 1500 kBq/kg",32.13% ID Th-227/g organ
same,Th-227 in large intestine,"[1]; 4 hr, 1500 kBq/kg",0.76% ID Th-227/g organ
same,Th-227 in lung,"[1]; 4 hr, 1500 kBq/kg",1.55% ID Th-227/g organ
same,Th-227 in muscle,"[1]; 4 hr, 1500 kBq/kg",0.37% ID Th-227/g organ
same,Th-227 in prostate,"[1]; 4 hr, 1500 kBq/kg",1.06% ID Th-227/g organ
same,Th-227 in salivary glands,"[1]; 4 hr, 1500 kBq/kg",0.72% ID Th-227/g organ
same,Th-227 in small intestine,"[1]; 4 hr, 1500 kBq/kg",0.74% ID Th-227/g organ
same,Th-227 in Blood,"[1]; 6 hr, 500 kBq/kg, study b2999",0.06 % ID Th-227/g organ
same,Th-227 in Femur and tibia,"[1]; 6 hr, 500 kBq/kg, study b2999",0.31 % ID Th-227/g organ
same,Th-227 in Kidneys,"[1]; 6 hr, 500 kBq/kg, study b2999",67.34 % ID Th-227/g organ
same,Th-227 in Liver,"[1]; 6 hr, 500 kBq/kg, study b2999",0.19 % ID Th-227/g organ
same,Th-227 in Salivary gland,"[1]; 6 hr, 500 kBq/kg, study b2999",2.84 % ID Th-227/g organ
same,Th-227 in Spleen,"[1]; 6 hr, 500 kBq/kg, study b2999",0.73 % ID Th-227/g organ
same,Th-227 in Tumor,"[1]; 6 hr, 500 kBq/kg, study b2999",9.80 % ID Th-227/g organ
same,Th-227 in prostate,"[1]; 6 hr, 500 kBq/kg, study b2999",6.41 % ID Th-227/g organ
